According to PMC4778904, “The Curcumin Analog C-150, Influencing NF-κB, UPR and Akt/Notch Pathways Has Potent Anticancer Activity In Vitro and In Vivo” (PLoS ONE, 2016):

Target: T1, PKC-alpha (Homo sapiens, UniProt P17252)
T1 construct: gene PRKCA
Assay: IMAP-FP kinase activity assay (Proteros selectivity panel), single concentration […], ATP at Km app; […] inhibition
Format: biochemical

C=CC(=O)NC(c1ccccc1)C(C(=O)/C=C/c1cccc(O)c1)C(=O)/C=C/c1cccc(O)c1 (stereo not shown) [compound 3, N-((E)-5-(3-hydroxyphenyl)-2-((E)-3-(3-hydroxyphenyl)acryloyl)-3-oxo-1-phenylpent-4-en-1-yl)acrylamide]
inhibition at 1 µM: 32.8%
